Common to all, as to assay: relative viability (nuclei count vs DMSO), 5 days (fraction); higher = more cells survive
Compound in experiment [1]: CS(=O)(=O)N1CCN(Cc2cc3nc(-c4cccc5[nH]ncc45)nc(N4CCOCC4)c3s2)CC1 [Pictilisib]
An outline of the steps: (§1)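 Lung cancer cell lines were seeded into 1536-well plates, kept overnight at 37 °C and pinned with five library-drug doses (not always all listed) spaced by √10. After 5 days, nuclei were Hoechst-stained, imaged at 4× and counted with MetaXpress. Viability is treated-well nuclei over vehicle-well nuclei, taken as a median across plates. Plates needed control CV below 25% and at least one doubling.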

Compound in experiment [2]: NC1(c2ccc(-c3nc4ccn5c(=O)[nH]nc5c4cc3-c3ccccc3)cc2)CCC1 [MK-2206]
Put shortly: as §1

Compound in experiment [3]: CS(=O)(=O)N1CCN(Cc2cc3nc(-c4cccc5[nH]ncc45)nc(N4CCOCC4)c3s2)CC1 [Pictilisib] + CC1(C)CCC(c2ccc(Cl)cc2)=C(CN2CCN(c3ccc(C(=O)NS(=O)(=O)c4ccc(N[C@H](CCN5CCOCC5)CSc5ccccc5)c(S(=O)(=O)C(F)(F)F)c4)cc3)CC2)C1 [Navitoclax] (partner 0.5 µM)
Put shortly: (§2)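 Relative viability is defined as nuclei in treated wells over nuclei in vehicle wells. Duplicate plates were run and medians reported. Lung cancer cell lines in 1536-well plates were dosed by pin tool one day after seeding, with one drug or with a fixed anchor-drug dose plus five library-drug doses (not always all listed) in √10 steps, and nuclei were counted after 5 days.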

Compound in experiment [4]: CS(=O)(=O)N1CCN(Cc2cc3nc(-c4cccc5[nH]ncc45)nc(N4CCOCC4)c3s2)CC1 [Pictilisib] + N=C(N)NC(=N)NCCc1ccccc1 [Phenformin] (partner 250 µM)
Put shortly:
as §2

As to UMC-11, the relative viability in experiment [1] (0.02 µM) worked out at 0.989; in experiment [1] (0.06325 µM), 1.14; in experiment [1] (0.6325 µM), 1.07; in experiment [1] (1 µM, anchor plate), 0.846; in experiment [1] (2 µM), 0.937; in experiment [2] (0.01 µM) it was 0.94. For the same cell line, the relative viability in experiment [2] (0.03162 µM) turned out to be 1.02; in experiment [2] (0.3162 µM), 1.07; in experiment [2] (1 µM), 0.937; in experiment [3] (first compound 0.02 µM) it was 0.343; in experiment [3] (first compound 0.06325 µM), 0.281; in experiment [3] (first compound 0.6325 µM) it was 0.349. For the same cell line, the relative viability turned out to be 0.281 in experiment [3] (first compound 2 µM); 0.331 in experiment [4] (first compound 0.02 µM); 0.346 in experiment [4] (first compound 0.06325 µM); 0.312 in experiment [4] (first compound 0.6325 µM); 0.315 in experiment [4] (first compound 2 µM).

For the origin of these results see the supplement of paper PMC10307832.
